Common to all, as to assay: Competitive radioligand binding, 125I-Tyr-SRIF 14, membrane preparations
Assay [1] deals with human somatostatin receptor SSTR1 (Homo sapiens (Human), UniProt P30872). The following applies: competitive binding vs 125I-Tyr-SRIF 14, human SSTR1 membranes; read-out: SST1. On the procedure:
(§1) Respective membrane receptor preparations were prepared in assay buffer (25 mM HEPES, 10 mM MgCl2, 1 mM CaCl2, 0.5% BSA, pH=7.4) at a 1:150 dilution. […] Binding assays were performed in triplicate for each concentration of ligand in a total volume of 200 μL radioligand (25 μL ligand, 25 μL radioligand, 150 μL receptors) and incubated at room temperature for 90 minutes using a shaking table. Binding was terminated by filtration through GF/B glass fiber filters that were presoaked in 0.5% polyethyleneimine for a minimum of 4 hours. Filters were washed 9× with 1000 μL ice cold wash buffer (50 mM Tris-HCl, pH=7.4, 0.2% BSA). Filters were scored, transferred into plastic test tubes and counted in a gamma counter (Wizard2, Perkin-Elmer). Determination of the Ki for each compound was performed using non-linear regression with GraphPad PRISM-5 software (GraphPad Software, Inc., La Jolla, Calif.).

In assay [2] the target is human somatostatin receptor SSTR5 (Homo sapiens (Human), UniProt P35346). The following applies: competitive binding vs 125I-Tyr-SRIF 14, human SSTR5 membranes; read-out: SST5. On the procedure: as §1
In assay [3] the target is human somatostatin receptor SSTR3 (Homo sapiens (Human), UniProt P32745). The following applies: competitive binding vs 125I-Tyr-SRIF 14, human SSTR3 membranes; read-out: SST3. On the procedure:
Competitive radioligand binding experiments were performed using MEMBRANE TARGET Systems (Perkin-Elmer, Boston, Mass.) for human somatostatin receptors: SSTR1 (ES-520-M400UA), SSTR2A (ES-521-M400UA), SSTR3 (ES523-M400UA), SSTR4 (ES-524-M400UA) and SSTR5 (ES-522-M400UA) receptors. (See Table 1). Respective membrane receptor preparations were prepared in assay buffer (25 mM HEPES, 10 mM MgCl2, 1 mM CaCl2, 0.5% BSA, pH=7.4) at a 1:150 dilution. Binding assays were performed using 1251-Tyr-SRIF 14 (Perkin-Elmer, NEX 3890) dissolved in 1 mM HCl. Binding assays were performed in triplicate for each concentration of ligand in a total volume of 200 μL radioligand (25 μL ligand, 25 μL radioligand, 150 μL receptors) and incubated at room temperature for 90 minutes using a shaking table. Binding was terminated by filtration through GF/B glass fiber filters that were presoaked in 0.5% polyethyleneimine for a minimum of 4 hours. Filters were washed 9× with 1000 μL ice cold wash buffer (50 mM Tris-HCl, pH=7.4, 0.2% BSA). Filters were scored, transferred into plastic test tubes and counted in a gamma counter (Wizard2, Perkin-Elmer). Determination of the Ki for each compound was performed using non-linear regression with GraphPad PRISM-5 software (GraphPad Software, Inc., La Jolla, Calif.).

The target of assay [4] is human somatostatin receptor SSTR2A (Homo sapiens (Human), UniProt P30874). The following applies: competitive binding vs 125I-Tyr-SRIF 14, human SSTR2A membranes; read-out: SST2. On the procedure: as §1

From patent publication US11136312B2, “3,4,5-trisubstituted-1,2,4-triazoles and 3,4,5-trisubstituted-3-thio-1,2,4-triazoles and uses thereof” (Board of Trustees of Southern Illinois University, priority 2017, dated 2021) come the findings set out here.

Chain of human somatostatin receptor SSTR2A (P30874 whole entry): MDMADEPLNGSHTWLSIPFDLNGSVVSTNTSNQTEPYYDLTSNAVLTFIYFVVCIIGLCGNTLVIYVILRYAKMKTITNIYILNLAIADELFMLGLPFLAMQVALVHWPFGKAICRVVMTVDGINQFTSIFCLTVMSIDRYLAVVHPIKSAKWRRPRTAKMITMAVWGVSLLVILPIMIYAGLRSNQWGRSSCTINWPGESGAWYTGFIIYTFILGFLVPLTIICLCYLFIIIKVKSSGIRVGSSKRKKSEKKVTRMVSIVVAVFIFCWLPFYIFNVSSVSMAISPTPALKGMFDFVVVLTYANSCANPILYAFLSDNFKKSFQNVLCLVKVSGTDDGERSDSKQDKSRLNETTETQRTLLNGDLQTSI

Regarding `c1ccc(CSc2nnc(-c3c[nH]c4ccccc34)n2CCCc2c[nH]cn2)cc1` [AH-1-86, 3-(4-(3-(1H-imidazol-4-yl)propyl)-5-(benzylthio)-4H-1,2,4-triazol-3-yl)-1H-indole], the Ki in assay [1] was more than 10000 nM; in assay [2], more than 10 µM.

As to `Clc1cccc(Cc2nnc(CCc3c[nH]c4ccccc34)n2CCCc2c[nH]cn2)c1` [BN-VI-56, 3-(2-(4-(3-(1H-Imidazol-4-yl)propyl)-5-(3-chlorobenzyl)-4H-1,2,4-triazol-3-yl)ethyl)-1H-indole], the Ki in assay [3] was more than 10 µM; in assay [1], 6930 nM; in assay [4], more than 10 µM; in assay [2] it was more than 10 µM.

Turning to `COc1cccc(Cc2nnc(CCc3c[nH]c4ccccc34)n2CCCc2c[nH]cn2)c1` [BN-VI-61, 3-(2-(4-(3-(1H-Imidazol-4-yl)propyl)-5-(3-methoxybenzyl)-4H-1,2,4-triazol-3-yl)ethyl)-1H-indole], the Ki is more than 10 µM in assay [3], more than 10000 nM in assay [1], more than 10 µM in assay [4] and more than 10 µM in assay [2].

Regarding `FC(F)(F)c1cccc(Cc2nnc(CCc3c[nH]c4ccccc34)n2CCCc2c[nH]cn2)c1` [BN-VI-97, 3-(2-(4-(3-(1H-Imidazol-4-yl)propyl)-5-(3-(trifluoromethyl)benzyl)-4H-1,2,4-triazol-3-yl)ethyl)-1H-indole], the Ki in assay [3] was more than 10 µM; in assay [1], 5310 nM; in assay [4], more than 10 µM; in assay [2] it was more than 10 µM.

On to `Clc1ccccc1Cc1nnc(CCc2c[nH]c3ccccc23)n1CCCc1c[nH]cn1` [MM-I-17, 3-(2-(4-(3-(1H-Imidazol-4-yl)propyl)-5-(2-chlorobenzyl)-4H-1,2,4-triazol-3-yl)ethyl)-1H-indole], for which the Ki in assay [3] was more than 10 µM; in assay [1] it was more than 10000 nM; in assay [4], more than 10 µM; in assay [2], more than 10 µM.

On to `COc1ccccc1Cc1nnc(CCc2c[nH]c3ccccc23)n1CCCc1c[nH]cn1` [MM-I-21, 3-(2-(4-(3-(1H-Imidazol-4-yl)propyl)-5-(2-methoxybenzyl)-4H-1,2,4-triazol-3-yl)ethyl)-1H-indole], for which the Ki was more than 10 µM in assay [3], more than 10000 nM in assay [1], more than 10 µM in assay [4] and more than 10 µM in assay [2].

For the compound `FC(F)(F)Oc1cccc(Cc2nnc(CCc3c[nH]c4ccccc34)n2CCCc2c[nH]cn2)c1` [MM-I-36, 3-(2-(4-(3-(1H-imidazol-4-yl)propyl)-5-(3-(trifluoromethoxy)benzyl)-4H-1,2,4-triazol-3-yl)ethyl)-1H-indole], the figures for the Ki in assay [1] and in assay [4] were 4080 nM and more than 10 µM, respectively.

Regarding `FC(F)(F)c1cccc(Cc2nnc(Cc3c[nH]c4ccccc34)n2CCCc2c[nH]cn2)c1` [MM-I-66, 3-((4-(3-(1H-imidazol-4-yl)propyl)-5-(3-(trifluoromethyl)benzyl)-4H-1,2,4-triazol-3-yl)methyl)-1H-indole], the Ki is more than 10 µM in assay [3], 588 nM in assay [1], 2.33 µM in assay [4] and more than 10 µM in assay [2].

Turning to `CS(=O)(=O)c1cccc(Cc2nnc(Cc3c[nH]c4ccccc34)n2CCCc2c[nH]cn2)c1` [MM-I-72, 3-((4-(3-(1H-imidazol-4-yl)propyl)-5-(3-(methylsulfonyl)benzyl)-4H-1,2,4-triazol-3-yl)methyl)-1H-indole], the Ki is 661 nM in assay [1] and more than 10 µM in assay [4].

Consider `COc1ccc(Cc2nnc(Cc3c[nH]c4ccccc34)n2CCCc2c[nH]cn2)cc1` [SK-I-23, 3-((4-(3-(1H-imidazol-4-yl)propyl)-5-(4-methoxybenzyl)-4H-1,2,4-triazol-3-yl)methyl)-1H-indole], for which the Ki in assay [3] is more than 10 µM; in assay [1], 2580 nM; in assay [4] it was more than 10 µM; in assay [2] it was more than 10 µM.

Consider `COc1ccc2[nH]cc(Cc3nnc(Cc4ccccc4)n3CCCc3c[nH]cn3)c2c1` [SK-I-53, 3-((4-(3-(1H-imidazol-4-yl)propyl)-5-benzyl-4H-1,2,4-triazol-3-yl)methyl)-5-methoxy-1H-indole], for which the Ki was more than 10 µM in assay [3], 1720 nM in assay [1], 7.1 µM in assay [4] and more than 10 µM in assay [2].

Turning to `COc1ccc2[nH]cc(Cc3nnc(Cc4ccc(F)cc4)n3CCCc3c[nH]cn3)c2c1` [SK-I-55, 3-((4-(3-(1H-imidazol-4-yl)propyl)-5-(4-fluorobenzyl)-4H-1,2,4-triazol-3-yl)methyl)-5-methoxy-1H-indole], the Ki in assay [3] was more than 10 µM; in assay [1] it was 1030 nM; in assay [4] it was 5.43 µM; in assay [2] it was more than 10 µM.

Consider `COc1ccc(Cc2nnc(Cc3c[nH]c4ccc(OC)cc34)n2CCCc2c[nH]cn2)cc1` [SK-I-56, 3-((4-(3-(1H-imidazol-4-yl)propyl)-5-(4-methoxybenzyl)-4H-1,2,4-triazol-3-yl)methyl)-5-methoxy-1H-indole], for which the Ki in assay [3] is more than 10 µM; in assay [1] it was 1010 nM; in assay [4], more than 10 µM; in assay [2], more than 10 µM.

Regarding `COc1ccc2[nH]cc(Cc3nnc(Cc4cccc(C(F)(F)F)c4)n3CCCc3c[nH]cn3)c2c1` [SK-I-57, 3-((4-(3-(1H-imidazol-4-yl)propyl)-5-(3-(trifluoromethyl)benzyl)-4H-1,2,4-triazol-3-yl)methyl)-5-methoxy-1H-indole], the Ki in assay [3] is 1.13 µM; in assay [1], 365 nM; in assay [4], 1.69 µM; in assay [2] it was more than 10 µM.

For `Fc1ccc(Cc2nnc(Cc3c[nH]c4cc(F)ccc34)n2CCCc2c[nH]cn2)cc1` [SK-I-91, 3-((4-(3-(1H-imidazol-4-yl)propyl)-5-(4-fluorobenzyl)-4H-1,2,4-triazol-3-yl)methyl)-6-fluoro-1H-indole], the Ki was more than 10 µM in assay [3], 468 nM in assay [1], 3.97 µM in assay [4] and more than 10 µM in assay [2].

With `COc1ccc(Cc2nnc(Cc3c[nH]c4cc(F)ccc34)n2CCCc2c[nH]cn2)cc1` [SK-I-105, 3-((4-(3-(1H-imidazol-4-yl)propyl)-5-(4-methoxybenzyl)-4H-1,2,4-triazol-3-yl)methyl)-6-fluoro-1H-indole], the Ki in assay [3] was more than 10 µM; in assay [1], 1080 nM; in assay [4], 5.3 µM; in assay [2], more than 10 µM.

Consider `CC(C)(C)Cc1nnc(Cc2c[nH]c3cc(F)ccc23)n1CCCc1c[nH]cn1` [SK-I-119, 3-((4-(3-(1H-imidazol-4-yl)propyl)-5-neopentyl-4H-1,2,4-triazol-3-yl)methyl)-6-fluoro-1H-indole], for which the Ki is more than 10 µM in assay [3], 4340 nM in assay [1], more than 10 µM in assay [4] and more than 10 µM in assay [2].

Turning to `Fc1ccc2c(Cc3nnc(Cc4c[nH]c5cc(F)ccc45)n3CCCc3c[nH]cn3)c[nH]c2c1` [SK-I-124, 3,3′-((4-(3-(1H-imidazol-4-yl)propyl)-4H-1,2,4-triazol-3,5-diyl)bis(methylene))bis(6-fluoro-1H-indole)], the Ki in assay [3] is 1.74 µM; in assay [1] it was 97.8 nM; in assay [4] it was 0.64 µM; in assay [2] it was more than 10 µM.

Turning to `c1ccc(Cc2nnc(CCc3c[nH]c4ccccc34)n2CCCc2c[nH]cn2)cc1` [SM-I-26, 3-(2-(4-(3-(1H-Imidazol-4-yl)propyl)-5-benzyl-4H-1,2,4-triazol-3-yl)ethyl)-1H-indole], the Ki in assay [3] was more than 10 µM; in assay [1] it was more than 10000 nM; in assay [4] it was more than 10 µM; in assay [2] it was more than 10 µM.

Regarding `Fc1cccc(Cc2nnc(CCc3c[nH]c4ccccc34)n2CCCc2c[nH]cn2)c1` [SM-I-38, 3-(2-(4-(3-(1H-Imidazol-4-yl)propyl)-5-(3-fluorobenzyl)-4H-1,2,4-triazol-3-yl)ethyl)-1H-indole], the Ki in assay [3] was more than 10 µM; in assay [1] it was more than 10000 nM; in assay [4] it was more than 10 µM; in assay [2], more than 10 µM.

As to `CS(=O)(=O)c1cccc(Cc2nnc(CCc3c[nH]c4ccccc34)n2CCCc2c[nH]cn2)c1` [SM-I-92, 3-(2-(4-(3-(1H-imidazol-4-yl)propyl)-5-(3-(methylsulfonyl)benzyl)-4H-1,2,4-triazol-3-yl)ethyl)-1H-indole], the Ki in assay [4] is more than 10 µM.
